Experimental data from ChEMBL document CHEMBL5543112, “Discovery of CBPD-268 as an Exceptionally Potent and Orally Efficacious CBP/p300 PROTAC Degrader Capable of Achieving Tumor Regression” (J Med Chem, 2024).
pIC50: −log10 of the molar value.

Key:
[1] = Drug distribution in SCID mouse tumor at 3 mg/kg, po measured at 1 hr by LC-MS/MS analysis; assay type: ADME, organism-based, Neoplasm; conditions: read-out: Ct
[2] = Drug distribution in SCID mouse spleen at 1 mg/kg, po measured at 24 hrs by LC-MS/MS analysis; assay type: ADME, organism-based; conditions: read-out: Ct
[3] = biological target: Voltage-gated inwardly rectifying potassium channel KCNH2 (Homo sapiens, UniProt Q12809); assay: Inhibition of hERG expressed in HEK293 cells; assay type: toxicity, cell-based
[4] = Drug concentration in SCID mouse plasma at 1 mg/kg, po measured at 1 hr by LC-MS/MS analysis; assay type: ADME, organism-based
[5] = Metabolic stability in dog plasma assessed as half life measured upto 120 mins by LC-MS/MS analysis; assay type: ADME, cell-free, Canis lupus familiaris
[6] = Toxicity in immune-competent Sprague-Dawley rat assessed as change in basophil at 1 to 10 mg/kg, po administered twice a week for 5 weeks; assay type: organism-based; conditions: in vivo, 840 h, dose 1-10 mg/kg
[7] = Drug distribution in SCID mouse plasma at 3 mg/kg, po measured at 6 hrs by LC-MS/MS analysis; assay type: ADME, organism-based
[8] = Toxicity in immune-competent Sprague-Dawley rat assessed as change in creatinine level at 1 to 10 mg/kg, po administered twice a week for 5 weeks; assay type: organism-based; conditions: in vivo, 840 h, dose 1-10 mg/kg
[9] = Plasma protein binding in dog by LC-MS analysis; assay type: ADME, cell-free, Canis lupus familiaris; conditions: read-out: PPB (converted)
[10] = Drug concentration in SCID mouse tumor at 1 mg/kg, po measured at 1 hr by LC-MS/MS analysis; assay type: ADME, organism-based, Neoplasm; conditions: read-out: Ct
[11] = Drug distribution in Sprague-Dawley rat plasma at 10 mg/kg, po measured at 6 hrs by LC-MS/MS analysis; assay type: ADME, organism-based
[12] = Toxicity in male BALB/c mouse assessed as effect on body weight loss at 3 to 10 mg/kg, po administered twice a week for 5 to 6 weeks; assay type: organism-based; conditions: in vivo, dose lower 3 mg/kg, time lower 5 weeks, dose upper 10 mg/kg, time upper 6 weeks
Cytochrome P450 2C19 = Cytochrome P450 2C19 (Homo sapiens, UniProt P33261); assay: Inhibition of CYP2C19 (unknown origin) preincubated with compound for 5 mins followed by NADPH addition and measured after 45 mins by LC-MS/MS analysis; assay type: ADME
[13] = Metabolic stability in dog liver microsome assessed as half life measured upto 60 mins in presence of NADPH by LC-MS/MS analysis; assay type: ADME, Canis lupus familiaris; conditions: liver microsomes
[14] = Plasma protein binding in human by LC-MS analysis; assay type: ADME, cell-free; conditions: read-out: PPB (converted)
[15] = Drug distribution in SCID mouse plasma at 0.3 mg/kg, po measured at 1 hr by LC-MS/MS analysis; assay type: ADME, organism-based
[16] = Half life in ICR mouse at 3 mg/kg, po measured upto 24 hrs by LC/MS-MS analysis; assay type: ADME, organism-based; conditions: in vivo
[17] = Drug distribution in Sprague-Dawley rat heart at 3 mg/kg, po measured at 1 hr by LC-MS/MS analysis; assay type: ADME, organism-based; conditions: read-out: Ct
[18] = Chemical stability of the compound assessed as parent compound remaining measured at 3 hrs; assay type: physicochemical
Cytochrome P450 2B6 = biological target: T1, Cytochrome P450 2B6 (Homo sapiens, UniProt P20813); assay: Inhibition of CYP2B6 (unknown origin) preincubated with compound for 5 mins followed by NADPH addition and measured after 10 mins by LC-MS/MS analysis; assay type: ADME
T1 sequence (P20813 whole entry): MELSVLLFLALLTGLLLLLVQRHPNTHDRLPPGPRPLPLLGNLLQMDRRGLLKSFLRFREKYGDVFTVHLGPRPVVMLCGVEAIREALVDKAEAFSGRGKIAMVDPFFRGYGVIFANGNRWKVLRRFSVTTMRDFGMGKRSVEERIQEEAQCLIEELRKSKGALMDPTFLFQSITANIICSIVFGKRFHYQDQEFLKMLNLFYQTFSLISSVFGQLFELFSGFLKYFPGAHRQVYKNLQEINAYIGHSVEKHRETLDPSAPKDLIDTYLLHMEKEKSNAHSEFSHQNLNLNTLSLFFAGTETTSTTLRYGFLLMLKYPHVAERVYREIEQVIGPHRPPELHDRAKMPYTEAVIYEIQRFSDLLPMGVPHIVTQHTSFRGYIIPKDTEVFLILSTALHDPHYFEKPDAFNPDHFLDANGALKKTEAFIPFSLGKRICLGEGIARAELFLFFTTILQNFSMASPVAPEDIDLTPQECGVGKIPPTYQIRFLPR

[19] = AUC in Sprague-Dawley rat at 3 mg/kg, po measured upto 24 hrs by LC/MS-MS analysis; assay type: ADME, organism-based; conditions: in vivo
Cytochrome P450 1A2 = biological target: T2, Cytochrome P450 1A2 (Homo sapiens, UniProt P05177); assay: Inhibition of CYP1A2 (unknown origin) preincubated with compound for 5 mins followed by NADPH addition and measured after 5 mins by LC-MS/MS analysis; assay type: ADME
T2 sequence (P05177 whole entry): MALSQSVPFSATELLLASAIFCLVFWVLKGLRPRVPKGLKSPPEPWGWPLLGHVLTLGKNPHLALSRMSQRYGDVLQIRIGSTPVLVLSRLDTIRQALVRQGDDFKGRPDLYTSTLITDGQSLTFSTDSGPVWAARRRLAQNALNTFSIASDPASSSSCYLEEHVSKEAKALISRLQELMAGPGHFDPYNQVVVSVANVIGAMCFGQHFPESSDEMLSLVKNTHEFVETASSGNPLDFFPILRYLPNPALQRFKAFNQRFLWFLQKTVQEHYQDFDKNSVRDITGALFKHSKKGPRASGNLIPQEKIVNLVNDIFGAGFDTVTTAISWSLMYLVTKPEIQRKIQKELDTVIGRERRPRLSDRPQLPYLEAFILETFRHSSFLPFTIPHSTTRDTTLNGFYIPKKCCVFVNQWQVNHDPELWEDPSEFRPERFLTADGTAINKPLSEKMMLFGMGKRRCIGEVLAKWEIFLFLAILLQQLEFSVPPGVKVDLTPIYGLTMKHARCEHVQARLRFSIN

[20] = Metabolic stability in human liver microsome assessed as half life measured upto 60 mins in presence of NADPH by LC-MS/MS analysis; assay type: ADME; conditions: liver microsomes
[21] = Drug distribution in SCID mouse liver at 0.3 mg/kg, po measured at 1 hr by LC-MS/MS analysis; assay type: ADME, organism-based; conditions: read-out: Ct
[22] = Toxicity in female BALB/c mouse assessed as body weight loss at 30 mg/kg, po administered twice a week for 5 to 6 weeks; assay type: organism-based; conditions: in vivo, time 5-6 weeks
[23] = Drug distribution in SCID mouse plasma at 3 mg/kg, po measured at 1 hr by LC-MS/MS analysis; assay type: ADME, organism-based
[24] = Toxicity in female BALB/c mouse assessed as effect on body weight loss at 3 to 10 mg/kg, po administered twice a week for 5 to 6 weeks; assay type: organism-based; conditions: in vivo, dose lower 3 mg/kg, time lower 5 weeks, dose upper 10 mg/kg, time upper 6 weeks
[25] = AUC in ICR mouse at 3 mg/kg, po measured upto 24 hrs by LC/MS-MS analysis; assay type: ADME, organism-based; conditions: in vivo
[26] = Drug distribution in Sprague-Dawley rat kidney at 10 mg/kg, po measured at 1 hr by LC-MS/MS analysis; assay type: ADME, organism-based; conditions: read-out: Ct
[27] = Drug distribution in SCID mouse liver at 1 mg/kg, po measured at 6 hrs by LC-MS/MS analysis; assay type: ADME, organism-based; conditions: read-out: Ct

Voltage-gated inwardly rectifying potassium channel KCNH2, sequence (Q12809 whole entry): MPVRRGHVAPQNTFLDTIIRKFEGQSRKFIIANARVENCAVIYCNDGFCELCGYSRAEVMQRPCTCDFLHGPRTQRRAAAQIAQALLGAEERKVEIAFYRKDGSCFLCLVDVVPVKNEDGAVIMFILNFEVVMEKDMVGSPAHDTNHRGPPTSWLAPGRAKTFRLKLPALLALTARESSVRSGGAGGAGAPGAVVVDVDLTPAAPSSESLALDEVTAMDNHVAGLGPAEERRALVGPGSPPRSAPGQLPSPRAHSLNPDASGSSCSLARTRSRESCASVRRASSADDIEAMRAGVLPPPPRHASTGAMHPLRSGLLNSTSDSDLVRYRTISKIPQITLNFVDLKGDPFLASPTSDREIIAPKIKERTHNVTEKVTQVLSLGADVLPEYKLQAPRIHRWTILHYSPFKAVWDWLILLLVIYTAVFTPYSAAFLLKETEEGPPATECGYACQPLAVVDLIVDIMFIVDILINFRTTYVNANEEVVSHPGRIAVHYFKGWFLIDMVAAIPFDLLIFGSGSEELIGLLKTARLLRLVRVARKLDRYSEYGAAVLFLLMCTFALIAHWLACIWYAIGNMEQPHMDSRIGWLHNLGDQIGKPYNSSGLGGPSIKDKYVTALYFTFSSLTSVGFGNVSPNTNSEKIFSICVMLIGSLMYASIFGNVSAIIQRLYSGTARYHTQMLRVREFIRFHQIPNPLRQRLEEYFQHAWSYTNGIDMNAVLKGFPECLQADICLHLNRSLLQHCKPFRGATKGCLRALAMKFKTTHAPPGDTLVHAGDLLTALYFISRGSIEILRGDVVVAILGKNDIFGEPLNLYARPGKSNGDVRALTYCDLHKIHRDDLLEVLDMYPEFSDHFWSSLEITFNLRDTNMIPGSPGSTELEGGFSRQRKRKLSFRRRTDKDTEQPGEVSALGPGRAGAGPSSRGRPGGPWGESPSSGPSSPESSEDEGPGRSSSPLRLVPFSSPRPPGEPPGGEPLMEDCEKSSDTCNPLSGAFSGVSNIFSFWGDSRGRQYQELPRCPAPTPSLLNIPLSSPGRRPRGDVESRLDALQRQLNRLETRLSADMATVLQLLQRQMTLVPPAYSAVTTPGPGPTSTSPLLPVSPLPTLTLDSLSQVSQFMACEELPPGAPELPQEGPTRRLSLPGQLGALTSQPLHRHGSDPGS
Cytochrome P450 2C19, sequence (P33261 whole entry): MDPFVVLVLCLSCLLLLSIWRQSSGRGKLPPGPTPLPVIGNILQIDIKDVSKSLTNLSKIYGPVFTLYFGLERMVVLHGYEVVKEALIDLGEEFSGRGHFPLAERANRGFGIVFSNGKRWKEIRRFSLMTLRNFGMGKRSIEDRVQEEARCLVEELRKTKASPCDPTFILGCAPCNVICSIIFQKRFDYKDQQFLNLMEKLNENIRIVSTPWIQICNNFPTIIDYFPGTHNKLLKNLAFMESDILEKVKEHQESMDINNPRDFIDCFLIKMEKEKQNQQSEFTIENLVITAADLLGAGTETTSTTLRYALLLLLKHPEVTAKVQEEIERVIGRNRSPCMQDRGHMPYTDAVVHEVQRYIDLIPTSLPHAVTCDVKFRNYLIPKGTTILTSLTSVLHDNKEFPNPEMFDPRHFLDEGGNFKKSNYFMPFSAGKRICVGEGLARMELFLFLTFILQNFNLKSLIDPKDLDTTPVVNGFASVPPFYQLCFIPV

## CC(=O)N1CCc2c(c(N3CCCc4cc(-c5cnn(C)c5)c(C(F)F)cc43)nn2[C@H]2CC[C@H](CN3Cc4cc5c(cc4C3)C(=O)N(C3CCC(=O)NC3=O)C5=O)CC2)C1 (stereo not given in full)
[1]
  concentration at 1 h: 249 ng/g
[2]
  concentration at 24 h: 2.8 ng/mL
[3]
  pIC50: < 4.52
[4]
  concentration at 1 h: 141 ng/mL
[5]
  half-life: 1.3 h
[6]
  Activity: Non-Toxic
[7]
  concentration at 6 h: 763 ng/mL
[8]
  Activity: Non-Toxic
[9]
  fraction unbound: 0.009
[10]
  concentration at 1 h: 30.8 ng/g
[11]
  concentration at 6 h: 41.4 ng/mL
[12]
  Activity: Non-Toxic
Cytochrome P450 2C19
  pIC50: < 5.00
[13]
  half-life: 0.817 h
[14]
  fraction unbound: 0.009
[15]
  concentration at 1 h: 35.2 ng/mL
[16]
  half-life: 3.1 h
[17]
  concentration at 1 h: 246 ng/g
[18]
  Stability: Stable
Cytochrome P450 2B6
  pIC50: < 5.00
[19]
  AUC at 24 h: 937 ng·h/mL
Cytochrome P450 1A2
  pIC50: < 5.00
[20]
  half-life: 0.8 h
[21]
  concentration at 1 h: 323 ng/mL
[22]
  Activity: < 5%
[23]
  concentration at 1 h: 747 ng/mL
[24]
  Activity: Non-Toxic
[25]
  AUC at 24 h: 4190 ng·h/mL
[26]
  concentration at 1 h: 1170 ng/g
[27]
  concentration at 6 h: 301 ng/mL
